The values that follow come from patent US8557331B2, “Antifouling method and composition using chromen-4-one derivatives” (The Hong Kong University of Science and Technology, priority 2008, dated 2013).

In brackets after ≈: the same amount, converted by molar mass.

Data set [1] has as its system larval settlement of the barnacle Balanus amphitrite. Nature of the data set: Bioassay for antifouling activity against larval settlement (cyprids, 24-well plate, 24 h). As to the method: (§1) The larvae were reared in freshly filtered natural seawater (FSW, 0.45 μm, 32S salinity) and fed with Chaetoceros gracilis Schutt at 24° C. in the Coastal Marine Laboratory, the Hong Kong University of Science and Technology (HKUST). Larvae that were competent to settle (called cyprids) were stored for 2 days at 8° C. prior to being used in the bioassays. Ten μl of each test sample dissolved in dimethyl sulfoxide (DMSO) were transferred into a well in 24-well polystyrene plate after the addition of 1 ml of FSW. The control wells contained 1 ml of FSW and 10 μl of DMSO. About 15 cyprids were added in each well with triplicate samples being tested.
as §1, with “freshly filtered nature seawater (FSW,” for “freshly filtered natural seawater (FSW,”, “Technology (HKUST). Cyprids (competent larvae) were stored” for “Technology (HKUST). Larvae that were competent to settle (called cyprids) were stored”, “8° C. (aged cyprids) prior to” for “8° C. prior to”

Assay in data set [2]: as above
The following applies: Balanus amphitrite (barnacle, cyprid larvae), in vivo. As to the method:
as §1
as §1, with “freshly filtered nature seawater (FSW,” for “freshly filtered natural seawater (FSW,”, “Technology (HKUST). Cyprids (competent larvae) were stored” for “Technology (HKUST). Larvae that were competent to settle (called cyprids) were stored”, “8° C. (aged cyprids) prior to” for “8° C. prior to”

Data set [3] relates to barnacle Balanus amphitrite. Nature of the data set: Field experiment: resin-based paint on PVC panels submerged at pier. The class given is in vivo. As for the experimental part: Test compounds (genistein, Cu2O, or their mixture) were mixed with resin-based paint (Permoglaze, Akzo Nobel Decorative Coatings, Lancashire, UK) with addition of 15% of (w/w) xylene, and then sprayed on the surface of PVC panels (size: 10 cm×10 cm×0.5 cm). Genistein was incorporated into paint by 10 and 20% of the dry weight as the low and high concentrations, respectively. In the experiments of combination effects, both Cu2O and genistein at 10% of dry weight were added. The controls used was a resin based paint with addition of 15% (w/w) of xylene only. Each of the tested paints was mixed for more than 8 h before being spread onto panels. The thickness of each paint film was between 100 and 150 μm. The painted panels were air-dried completely prior to being tied to PVC frames and deployed vertically at a depth of 1-1.5 m at the pier of HKUST from March to June in 2007. The numbers of adult barnacle B. amphitrite on the surface were counted and the density on each panel was calculated after their submergences. Four replicates were tested for each sample.

Data set [4] can be described thus: Hydrolysis experiment of genistein (ASTM E895-89, HPLC). Format: physicochemical. The note with it: 50° C. in dark, a week. As for the experimental part:
The experiments were carried out according to the method described in ASTM (1993). Buffer solutions consisting of 20 mM of sodium acetate were prepared with adjusted pH level at 5, 7, and 9. FSW was the same as those used in bioassays. Artificial seawater (ASW) was prepared as van't Hoff formula (460 mM NaCl, 10.1 mM KCl, 9.2 mM CaCl2, 35.9 mM MgCl2, 17.5 mM MgSO4, 10 mM Tris-HCl, and pH 8.2). Test solution (900 ml) containing 4 μg genistein was divided into nine test glass tubes (100 ml each), and then the tubes were tightly capped. Immediately after preparation of the test solutions, three tubes were loaded onto a Sep-Pak tC18 ENV column (Waters, USA), preconditioned for use by eluting it with methanol and water under reduced pressure. The column after loading the test sample was eluted with water to remove any salts in the test samples, and was then eluted with 2.5 ml of DMSO. Thus, the eluate was 40 times more concentrated than the sample in the original test solution; this concentrated solution was subjected to HPLC analysis. The HPLC system (600, Waters, USA) was equipped with a photodiode array detector (996, Waters, USA) installed in tandem after outlet of the column (Phenomenex Luna 5λ C18 100A, 250×4.60 mm, 5 micron). The solvents used were (A) 5% acetonitrile and (B) 95% acetonitrile at the isocratic flow rates of (A) 0.53 ml min^−1 and (B) 0.47 ml min^−1 at 40° C., respectively. A volume of ten μl of elute was injected into the column using an autosampler (717plus, Waters, USA). The UV absorption at 1=260 nm was used for quantification. The analytical data were shown as the average value of triplicate analyses. The remaining six tubes were kept at 50° C. in the dark in an incubator for a period of four or seven days according to ASTM Procedure E895-89 (ASTM, 1993). After the incubations, each of three test samples was subjected to HPLC analysis, following the same concentration process as described above to determine the remaining concentration of genistein.

Where [5] appears, read: Amphibalanus amphitrite, Table 2, larval settlement.
[6] abbreviates: Amphibalanus amphitrite, Table 2, larval settlement of Balanus amphitrite, mean ± standard deviation of at least three replicates.
Setting [7] is: Table 2, LC50 used is the highest concentration causing <50% death of larvae.
The mark [8] stands for this setting: judged from LC50/EC50, standard of Avelin et al. (1993): nontoxic if higher than 10.
The mark [9] stands for this setting: single compound at 10% of dry weight of paint, three months submergence.

Usually EC50 stands for the concentration that produces a half-maximal response. Read a low EC50 as greater potency. As to `COc1c(OC)c(O)c2c(=O)c(OC)c(-c3ccc(O)cc3)oc2c1OC` [Sample F-1, 4′,5-dihydroxy-3,6,7,8 tetramethoxy-flavone], the EC50 was roughly 3 µg/mL (≈ 8.01 µM) in data set [1] (setting [5]) and 3.4 ± 0.5 µg/mL (≈ 9.08 µM) in data set [1] (setting [6]). The same compound returned an LC50/EC50 in data set [1] (setting [7]) greater than 14.7. Also, the “toxicity (in words)” value in data set [1] (in vivo) is “almost no toxicity”.
With `COc1ccc(-c2coc3c(OC)c(O)ccc3c2=O)cc1` [Sample F-2, 7-hydroxy-8,4′-dimethoxyisoflavone], in data set [1] (setting [6]), it took 13.3 ± 2.5 µg/mL (≈ 44.6 µM) to reach a half-maximal effect (EC50). Moreover, the LC50/EC50 in data set [1] (setting [7]) is greater than 7.50.
As for `COc1ccc(-c2oc3cc(OC)c(OC)c(O)c3c(=O)c2OC)cc1O` [Sample F-3], the EC50 in data set [1] (setting [5]) was roughly 3 µg/mL (≈ 8.01 µM); in data set [1] (setting [6]), 3 ± 0.4 µg/mL (≈ 8.01 µM). The LC50/EC50 in data set [1] (setting [7]) is greater than 16.7. In addition, the “toxicity (in words)” value in data set [1] (in vivo) was “almost no toxicity”.
Turning to `COc1cc2oc(-c3ccc(O)cc3)c(OC)c(=O)c2c(O)c1OC` [Sample F-4, 4′,5,-dihydroxy-3,6,7-trimethoxy-flavone], the EC50 in data set [1] (setting [5]) was roughly 3 µg/mL (≈ 8.71 µM); in data set [1] (setting [6]), 2.5 ± 0.3 µg/mL (≈ 7.26 µM). The LC50/EC50 in data set [1] (setting [7]) is recorded as greater than 20.0. In addition, in data set [1] (in vivo), the “toxicity (in words)” value is given as “almost no toxicity”.
For the compound `C[C@@H]1O[C@@H](OC[C@H]2O[C@@H](Oc3c(-c4ccc(O)c(O)c4)oc4cc(O)cc(O)c4c3=O)[C@H](O)[C@@H](O)[C@@H]2O)[C@H](O)[C@H](O)[C@H]1O` [Sample F-5, neoisorutin], the LC50/EC50 in data set [1] (setting [7]) is recorded as greater than 5.0. The concentration giving a half-maximal response (EC50) in data set [1] (Table 2, larval settlement of Balanus amphitrite, mean ± standard deviation of at least three replicates) stood at 40.1 ± 3.4 µg/mL (≈ 65.7 µM).
In data set [1] (setting [6]), `O=c1c(O)c(-c2ccc(O)cc2)oc2cc(O)cc(O)c12` [Sample F-6, kaempferol] registered an EC50 of 9.6 ± 1.4 µg/mL (≈ 33.5 µM). For the same compound, in data set [1] (setting [7]), the LC50/EC50 is given as greater than 5.2.
Taken in the same sequence, the figures for `COc1ccc(-c2oc3cc(OC)cc(O)c3c(=O)c2O)cc1` [Sample F-8, 3,5-dihydroxy-7,4′-dimethoxyflavone] were 11.8 ± 2.1 µg/mL (≈ 37.5 µM) and greater than 4.2.
Regarding `O=c1cc(-c2ccc(O)cc2)oc2cc(O)cc(O)c12` [Sample F-9, 4′,5,7-trihydroxy-flavone], the EC50 was roughly 3 µg/mL (≈ 11.1 µM) in data set [1] (setting [5]) and 3.1 ± 0.3 µg/mL (≈ 11.5 µM) in data set [1] (setting [6]). The LC50/EC50 in data set [1] (setting [7]) is listed as greater than 16.1. Further, in data set [1] (setting [8]), the “toxicity (in words)” value is reported as “almost no toxicity”.
As to `O=c1cc(-c2ccc(O)c(O)c2)oc2cc(O)cc(O)c12` [Sample F-10], the EC50 in data set [1] (setting [5]) is roughly 3 µg/mL (≈ 10.5 µM); in data set [1] (setting [6]), 3.8 ± 0.4 µg/mL (≈ 13.3 µM). This compound also yielded an LC50/EC50 in data set [1] (Balanus amphitrite, in vivo, 24 h) greater than 13.2. Further, in data set [1] (in vivo), the “toxicity (in words)” value is recorded as “almost no toxicity”.
Usually LC50 stands for the concentration lethal to half of the exposed cells or organisms. A low value points to greater toxicity. Regarding `O=c1c(-c2ccc(O)cc2)coc2cc(O)cc(O)c12` [Sample F-12, 4′,5,7-trihydroxy-isoflavone], the EC50 worked out at 3 µg/mL (≈ 11.1 µM) in data set [1] (24 h, genistein from Streptomyces fungicidicus, larval settlement, 24 h at 24° C., method of Rittschof et al. (1994)); 3 µg/mL (≈ 11.1 µM) in data set [1] (setting [5]); 3 ± 0.3 µg/mL (≈ 11.1 µM) in data set [1] (setting [6]). In addition, in data set [1] (FIG. 2), the “concentration at which inhibitory activity against larvae settlement was observed (as low as)” value turned out to be 0.5 µg/mL. Also, the LC50/EC50 in data set [1] (setting [7]) was greater than 16.7; in data set [1] (Table 2, genistein purified from extract of Genista tinctoria) it was greater than 16.7; in data set [1] (genistein from Streptomyces fungicidicus), greater than 16.7. Moreover, the larvae settled in data set [1] (concentration of 8 μg/ml, control 90% settlement) was found to be 10%. In data set [1] (setting [8]), the “toxicity (in words)” value is “nontoxic”. This compound also yielded a median lethal concentration (LC50) at 24 h in data set [2] greater than 50 µg/mL. For the same compound, the “density of barnacles fouled on the test panels” value was 0.12 ± 0.031 adults cm^−2 in data set [3] (10% of dry weight of paint, one month submergence, control 0.32 ± 0.039); 0.57 ± 0.055 adults cm^−2 in data set [3] (10% of dry weight of paint, two months submergence, control 0.71 ± 0.053); 0.08 ± 0.027 adults cm^−2 in data set [3] (20% of dry weight of paint, one month submergence, control 0.32 ± 0.039); 0.13 ± 0.029 adults cm^−2 in data set [3] (20% of dry weight of paint, two months submergence, control 0.71 ± 0.053); 0.77 ± 0.042 adults cm^−2 in data set [3] (setting [9]). The genistein decomposed in data set [4] (artificial seawater (ASW)) is reported as roughly 35%; in data set [4] (filtered natural seawater (FSW)) it was roughly 26%; in data set [4] (pH 5.0 buffer solution) it was “About 27%”; in data set [4] (pH 7.0 buffer solution) it was roughly 31%; in data set [4] (pH 9.0 buffer solution), roughly 37%.
With `COc1ccc(-c2oc3c(CC=C(C)C)c(O[C@@H]4O[C@H](CO)[C@@H](O)[C@H](O)[C@H]4O)cc(O)c3c(=O)c2O[C@@H]2O[C@@H](C)[C@H](O)[C@@H](O)[C@H]2O)cc1` [Sample F-16, icariin], the midpoint of the response in data set [1] (setting [6]), the EC50, lay at 35.3 ± 4.2 µg/mL (≈ 52.2 µM). Further, the LC50/EC50 in data set [1] (setting [7]) is greater than 2.8.
Regarding `O=c1cc(-c2ccccc2)oc2cccc(O)c12` [Sample F-17, 5-monohydroxy-flavone], the EC50 was roughly 3 µg/mL (≈ 12.6 µM) in data set [1] (setting [5]) and 2.8 ± 0.3 µg/mL (≈ 11.8 µM) in data set [1] (setting [6]). Moreover, the LC50/EC50 in data set [1] (setting [7]) is greater than 17.9. The “toxicity (in words)” value in data set [1] (setting [8]) is listed as “almost no toxicity”.
For Cu2O [reference compound], the “density of barnacles fouled on the test panels” value in data set [3] (setting [9]) is 0.81 ± 0.06 adults cm^−2.
